The values below come from patent publication US20140219995A1, “INHIBITORS OF BACTERIAL TYPE III SECRETION SYSTEM” (priority 2011, published 2014).

SMILES strings stand for the structures. Read-outs that look alike come from different tables or passages of the source. Some results are limits rather than exact numbers.

For data set [1], the system named is T3SS-mediated secretion of ExoS′-βLA fusion protein, P. aeruginosa strain MDM973. In words: Effector-β-lactamase (ExoS′-βLA) secretion assay. It counts as cell-based, Pseudomonas aeruginosa. The note with it: for IC50: Pseudomonas aeruginosa. The text has this:
Effector-β-Lactamase (βLA) Secretion Assays.
P. aeruginosa. A gene encoding an ExoS'-β-lactamase (βLA) fusion protein (comprised of 234 codons of P. aeruginosa effector ExoS fused to the TEM-1 β-lactamase gene lacking secretion signal codons) was constructed by splicing by overlap extension PCR (SOE-PCR) (Choi and Schweizer, 2005, BMC Microbiol., 5:30) using primers 5-10 (Table 3, above), sequence confirmed, cloned into lacI^Q-containing GATEWAY® vector pUCP24GW (see Moir, et al., 2007, J Biomol. Screen., 12:855-64) behind the lac promoter, and introduced into P. aeruginosa by electroporation (see Choi, et al., 2006, J. Microbiol. Methods, 64:391-7). Secretion of fusion proteins was detected by measuring the hydrolysis of the chromogenic β-lactamase substrate nitrocefin in clear 96-well microplates in a modification of a previously described assay (Lee, et al., 2007, Infect. Immun., 75:1089-98). Cells of strain MDM973 (PAK/pUCP24GW-exoS:blaM) were sub-cultured in the morning from overnight growths in LBG into 0.1 ml of LBGIE with or without test compounds and grown for 150 min. Nitrocefin (100 μg/ml final) was added, and A490 measurements taken every minute for 15 min in a Victor^3V 1420 Multilabel HTS Counter (PerkinElmer). Slopes were calculated as a relative measure of the quantity of the effector-βLA fusion protein secreted and were absolutely dependent on induction with IPTG, EGTA, and the presence of a functional pscC gene in the P. aeruginosa cells. Typical signal:background ratios were 6-10.

In data set [2] the test system is T3SS-mediated cytotoxicity of translocated effector protein ExoU in CHO cells. In words: Inhibition of P. aeruginosa ExoU-dependent CHO cell killing (translocation, LDH release). The format is cell-based. As to conditions: Pseudomonas aeruginosa. The text has this:
Inhibition of P. aeruginosa ExoU-Dependent CHO Cell Killing.
Pseudolipasin, which acts by direct inhibition of the ExoU phospholipase, was used as control inhibitor (Lee, et al, 2007, Infect. Immun., 75:1089-98).

[3] abbreviates: read-out: Avg. Translocation IC50.

The IC50 is the midpoint of a concentration-inhibition curve. As usually defined, the melting point is the temperature of the solid-liquid transition. In turn, `CC(Oc1ccc(Cl)cc1Cl)c1nc(-c2ccc(F)cc2)no1` (stereo not drawn) [MBX-2667, 5-[1-(2,4-dichlorophenoxy)ethyl]-3-(4-fluorophenyl)-1,2,4-oxadiazole] displayed a melting point of 77 °C. Also, the IC50 in data set [1] (read-out: Avg. Secretion IC50) is over 100 µM.

As for `CC(Nc1ccc(Cl)cc1Cl)C(=O)NCc1ccc(F)cc1` (stereo not drawn) [MBX-2215], the IC50 in data set [1] (read-out: Avg. Secretion IC50) came to 17.2 µM.

`CC(Oc1ccc(F)cc1Cl)C(=O)NCc1ccc(F)cc1` (stereo not drawn) [MBX-2029] returned a melting point of 95 °C. The IC50 in data set [1] (read-out: Avg. Secretion IC50) was 52.1 µM. For the same molecule, the IC50 in data set [2] (setting [3]) is over 100 µM.

Take `COc1cc(CNC(=O)C(C)Oc2ccc(Cl)cc2Cl)cc(OC)c1OC` (stereo not drawn) [MBX-1944]: the melting point amounted to 119 °C. Also, the IC50 in data set [1] (read-out: Avg. Secretion IC50) is 55.5 µM. Besides, the half-inhibitory concentration (IC50) in data set [2] (setting [3]) is over 100 µM.

Regarding `CC(Oc1ccc(Cl)cc1Cl)C(=O)N(C)Cc1ccc2c(c1)OCO2` (stereo not drawn) [MBX-2160], the IC50 in data set [1] (read-out: Avg. Secretion IC50) stood at 10.1 µM; in data set [2] (setting [3]) it was 24.3 µM. In addition, the “effect of structural alteration on T3SS-mediated secretion inhibition” value (“effect … on T3SS-mediated secretion inhibition” below) in data set [1] (vs. MBX-1641) is reported as “slightly negative impact”.

On to `CC(Oc1ccc(Cl)cc1Cl)C(=O)NC(C)c1ccc2c(c1)OCO2` (stereo not drawn) [MBX-2187], for which the melting point stood at 109 °C. Further, in data set [1] (read-out: Avg. Secretion IC50), the concentration for half-maximal inhibition (IC50) turned out to be 3.8 µM. In addition, the 50% inhibitory concentration (IC50) in data set [2] (setting [3]) was 11 µM.

Consider `CC(Oc1ccc(Cl)cc1Cl)c1nc(Cc2ccc(F)cc2)no1` (stereo not drawn) [MBX-2708, 5-[1-(2,4-dichlorophenoxy)ethyl]-3-(4-fluorobenzyl)-1,2,4-oxadiazole], for which, in data set [1] (read-out: Avg. Secretion IC50), the IC50 was over 100 µM.

With `COc1ccc(CNC(=O)C(C)Oc2ccc(F)cc2Cl)cc1OC` (stereo not drawn) [MBX-2027], the melting point came to 101 °C. The IC50 in data set [1] (read-out: Avg. Secretion IC50) was found to be 100 µM.

Molecule `COc1cccc(CNC(=O)C(C)Oc2ccc(Cl)cc2Cl)c1` (stereo not drawn) [MBX-1941] showed a melting point of 119 °C. For the same molecule, the half-inhibitory concentration (IC50) in data set [1] (read-out: Avg. Secretion IC50) was 17.2 µM.

For `COc1ccc(CNC(=O)C(C)Nc2ccc(Cl)cc2Cl)cc1` (stereo not drawn) [MBX-2214], the melting point was 125 °C. In addition, the IC50 in data set [1] (read-out: Avg. Secretion IC50) worked out at 24.5 µM.

Regarding `COc1cccc(CNC(=O)C(C)Oc2ccc(Cl)cc2Cl)c1OC` (stereo not drawn) [MBX-1948], the melting point was determined as 130 °C. Further, the IC50 in data set [1] (read-out: Avg. Secretion IC50) was 10.1 µM. The IC50 in data set [2] (setting [3]) is over 100 µM.

`CC(Oc1ccc(Cl)cc1Cl)C(=O)NCc1ccc2c(c1)CCCN2C` (stereo not drawn) [MBX-2000] came in with a melting point of 119 °C. For the same molecule, the IC50 in data set [1] (read-out: Avg. Secretion IC50) was 25.7 µM. In data set [2] (setting [3]), the IC50 is over 100 µM.

Turning to `CC(C)(Oc1ccc(Cl)cc1Cl)C(=O)NCc1ccc2c(c1)OCO2` [MBX-1685], the melting point is 92 °C. Besides, the half-maximal inhibitory concentration (IC50) in data set [1] (read-out: Avg. Secretion IC50) was over 100 µM. In addition, the “effect … on T3SS-mediated secretion inhibition” value in data set [1] (vs. MBX-1641) is recorded as “significantly inferior performance”.

Consider `CC(Oc1ncc(Cl)cc1Cl)C(=O)NCc1ccc(C2(C(F)(F)F)N=N2)cc1` (stereo not drawn) [MBX-2713], for which the melting point amounted to 112 °C. Also, the IC50 in data set [1] (read-out: Avg. Secretion IC50) was over 100 µM.

Molecule `CC(Oc1ccc(Cl)cc1Cl)C(=O)NC(C(=O)O)c1ccc(F)cc1` (stereo not drawn) [MBX-2707] returned a melting point of 160 °C. Moreover, the half-inhibitory concentration (IC50) in data set [1] (read-out: Avg. Secretion IC50) was over 100 µM.

For the molecule `COc1cc2c(cc1CNC(=O)C(C)Oc1ccc(Cl)cc1Cl)OCCO2` (stereo not drawn) [MBX-1998], the melting point was 152 °C. In addition, the IC50 in data set [1] (read-out: Avg. Secretion IC50) is 17.6 µM. Further, in data set [2] (setting [3]), the IC50 was found to be 51.4 µM.

For the molecule `CC(C)C(Oc1ccc(Cl)cc1Cl)C(=O)NCc1ccc2c(c1)OCO2` (stereo not drawn) [MBX-2146], the “effect … on T3SS-mediated secretion inhibition” value in data set [1] (vs. MBX-1641) was “significantly inferior performance”.

For `CC(Oc1ccc(Cl)cc1Cl)C(=O)N1CCc2ccc(F)cc2C1` (stereo not drawn) [MBX-2190], the IC50 in data set [1] (read-out: Avg. Secretion IC50) was 95.6 µM; in data set [1] (read-out: Secretion IC50), 95.6 µM; in data set [2] (setting [3]), over 100 µM; in data set [2] (read-out: Translocation IC50), at least 100 µM.

Regarding `COc1cc(CNC(=O)C(C)Oc2ccc(Cl)cc2Cl)cc(OC)c1` (stereo not drawn) [MBX-1943], the melting point came to 111 °C. Moreover, in data set [1] (read-out: Avg. Secretion IC50), the IC50 was found to be 18.8 µM. The half-maximal inhibitory concentration (IC50) in data set [2] (setting [3]) is 23.7 µM.

In the case of `CC(Oc1ccc(Cl)cc1Cl)C(=O)NCc1ccc(-c2ccccc2)cc1` (stereo not drawn) [MBX-2022], the melting point came out at 114 °C. Besides, the IC50 in data set [1] (read-out: Avg. Secretion IC50) was 100 µM.

As for `CC(Oc1ccc(Cl)cc1Cl)C(=O)NCc1ccc(F)nc1` (stereo not drawn) [MBX-2677], the melting point was 55 °C. Moreover, the IC50 in data set [1] (read-out: Avg. Secretion IC50) came out at 40 µM.

The molecule `CC(Oc1ccc(Cl)cc1Cl)C(=O)NCc1cnc2[nH]ccc2c1` (stereo not drawn) [MBX-2709] registered a melting point of 198 °C. Further, the IC50 in data set [1] (read-out: Avg. Secretion IC50) came out at 8.8 µM.

As to `CC(Oc1ccc(Cl)cc1Cl)C(=O)NCc1ccc(C2(C(F)(F)F)N=N2)cc1` (stereo not drawn) [MBX-2718], the melting point amounted to 117 °C. The IC50 in data set [1] (read-out: Avg. Secretion IC50) is over 100 µM.

The molecule `CC(Sc1ccc(Cl)cc1Cl)C(=O)NCc1ccc2c(c1)OCO2` (stereo not drawn) [MBX-2161] returned a melting point of 137 °C. The IC50 in data set [1] (read-out: Avg. Secretion IC50) stood at 5 µM. In addition, the “IC50 values lower (T3SS secretion inhibition)” value in data set [1] (vs. MBX-1641) is reported as 29%.

In turn, `O=C(COc1ccc(Cl)cc1Cl)NCc1ccc2c(c1)OCO2` [MBX-1668] came in with a melting point of 117 °C. In data set [1] (read-out: Avg. Secretion IC50), the IC50 was over 100 µM. In addition, the “effect … on T3SS-mediated secretion inhibition” value in data set [1] (vs. MBX-1641) was “significantly inferior performance”.

`CC(Oc1ccc(F)cc1Cl)C(=O)NCc1ccc2c(c1)OCO2` (stereo not drawn) [MBX-2026] registered a melting point of 95 °C.

Molecule `COc1ccc(CNC(=O)C(C)Nc2ccc(Cl)cc2Cl)cc1OC` (stereo not drawn) [MBX-2213] gave a melting point of 132 °C. Also, the IC50 in data set [1] (read-out: Avg. Secretion IC50) was determined as 58.7 µM.

On to `CC(Oc1ccc(Cl)cc1Cl)C(=O)NCCCc1ccc(F)cc1` (stereo not drawn) [MBX-2622], for which the melting point is 112 °C. Moreover, the IC50 in data set [1] (read-out: Avg. Secretion IC50) is over 100 µM.

In the case of `CC(Oc1ccc(Cl)cc1Cl)C(=O)N1CCc2cc3c(cc2C1)OCO3` (stereo not drawn) [MBX-2188], the IC50 in data set [1] (read-out: Avg. Secretion IC50) and in data set [1] (read-out: Secretion IC50) was 114 µM in each case.

In turn, `Cc1ccccc1CNC(=O)C(C)Oc1ccc(Cl)cc1Cl` (stereo not drawn) [MBX-1951] had a melting point of 128 °C. The IC50 in data set [2] (setting [3]) came out at 66.7 µM.

Molecule `COc1ccc(CNC(=O)C(C)Oc2ccc(Cl)cc2Cl)cc1OC` (stereo not drawn) [MBX-1942] displayed a melting point of 127 °C. In addition, the IC50 in data set [2] (setting [3]) was over 100 µM.

For the molecule `CC(Oc1ccc(Cl)cc1Cl)C(=O)OCCc1ccc(F)cc1` (stereo not drawn) [MBX-2717, 4-fluorophenethyl 2-(2,4-dichlorophenoxy)propanoate], the IC50 in data set [1] (read-out: Avg. Secretion IC50) was over 100 µM.

Turning to `CC(Oc1ccc(Cl)cc1Cl)C(=O)NC(CO)c1ccc(F)cc1` (stereo not drawn) [MBX-2625], the IC50 in data set [1] (read-out: Avg. Secretion IC50) was 5 µM.

As for `COC(=O)C(NC(=O)C(C)Oc1ccc(Cl)cc1Cl)c1ccc(F)cc1` (stereo not drawn) [MBX-2705], the melting point is 84 °C. In data set [1] (read-out: Avg. Secretion IC50), the IC50 stood at 6 µM.

With `COc1ccc(CNC(=O)C(C)Oc2ccc(Cl)cc2Cl)c(OC)c1` (stereo not drawn) [MBX-1949], the melting point turned out to be 117 °C. In addition, the half-maximal inhibitory concentration (IC50) in data set [1] (read-out: Avg. Secretion IC50) is 16.9 µM.

Regarding `CC(Oc1ccc(Cl)cc1Cl)C(=O)CCc1ccc(F)cc1` (stereo not drawn) [MBX-2719, 4-(2,4-dichlorophenoxy)-1-(4-fluorophenyl)pentan-3-one], the IC50 in data set [1] (read-out: Avg. Secretion IC50) was over 100 µM.

The molecule `CC(Sc1ccc(Cl)cc1Cl)C(=O)NCc1ccc(F)cc1` (stereo not drawn) [MBX-2164] registered a melting point of 142 °C. Also, in data set [1] (read-out: Avg. Secretion IC50), the half-inhibitory concentration (IC50) is 4 µM.

Turning to `COc1ccc(CNC(=O)C(C)Oc2ccc(Cl)cc2Cl)cc1` (stereo not drawn) [MBX-1940], the melting point was 76 °C. Besides, the IC50 in data set [2] (setting [3]) amounted to 12.5 µM.

In the case of `CC(Oc1ccc(Cl)cc1Cl)C(=O)NCc1ccccc1Cl` (stereo not drawn) [MBX-1956], the melting point was found to be 113 °C. The IC50 in data set [2] (setting [3]) turned out to be 52.3 µM.

With `CC(Oc1ccc(Cl)cc1Cl)C(=O)N1CCc2cc(F)ccc2C1` (stereo not drawn) [MBX-2189], the IC50 in data set [1] (read-out: Avg. Secretion IC50) and in data set [1] (read-out: Secretion IC50) was 111 µM in each case.

In the case of `C[C@@H](Oc1ccc(Cl)cc1Cl)C(=O)NCc1ccc2c(c1)OCO2` [MBX-1684], the concentration for half-maximal inhibition (IC50) in data set [1] (read-out: Avg. Secretion IC50) amounted to 3.7 µM.
